Measurements published in patent US20100183600A1, “RAF Inhibitors and Their Uses” (ARQULE, INC., priority 2008, published 2010).

Assays:
CFPPAC-1 = experiment: Cell growth inhibition assay (MTS); assay type: cell-based; details: Homo sapiens; CFPPAC-1, pancreasductal adenocarcinoma; cystic fibrosis
Method in brief: (§1)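 72 h compound exposure, DMEM/10% FBS, 37° C., 5% CO2; 1-5×10^3 cells/well pre-cultured 24 h. MTS/PMS 4 hr, A492. IC50 = 50% drop in absorbance.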

LS174T = experiment: Cell growth inhibition assay (MTS); assay type: cell-based; details: Homo sapiens, colorectal carcinoma
Method in brief: as §1

## Cn1ccc(S(=O)(=O)N2CCC[C@@H](Nc3nccc(-c4c(-c5cccc(OCOP(=O)(O)O)c5)nc5occn45)n3)C2)n1 [Compound 19, (R)-(3-(5-(2-(1-(1-methyl-1H-pyrazol-3-ylsulfonyl)piperidin-3-ylamino)pyrimidin-4-yl)imidazo[2,1-b]oxazol-6-yl)phenoxy)methyl dihydrogen phosphate]
CFPPAC-1
  GI50: 11.9 µM
LS174T
  GI50: 5.9 µM
